≈ marks a conversion by molar mass, not a printed value. Where two headings read alike, the source gives them in different places.
How the values were obtained:
[1] = Thermodynamic equilibrium aqueous solubility; format: physicochemical; settings: thermodynamic from solid, 18-24 hours at room temperature, read-out: Solubility (μg/mL) pH 1.0, 4.0, 6.5, 7.4 buffers
Description: Thermodynamic Equilibrium Aqueous Solubility Evaluation
The calibration standard is prepared by accurately weighing 0.3-0.7 mg of sample into 5 ml volumetric flask and then dissolved in pure methanol. If the standard material is not fully soluble in methanol, other solvents such as DMSO or mixed solvent systems can used.
The calibration standard is typically prepared fresh, before the start of the assay. Note the calibration standard must be fully dissolved. A single point calibration curve is used to determine the concentration of the final saturated solution.
The saturated solution is prepared by adding 1.0 ml of the appropriate aqueous solvent to the remaining portion/portions of material (˜1 mg/l ml) into the 1 dram submission vial. The solution is sonicated and vortexed for ˜30 seconds. The sample solution is placed on an orbiter that continually agitates the sample solutions for 18-24 hours at room temperature. The saturated solution is then transferred to a 1.5 ml eppendorf tube and centrifuged for ˜2 min. at 10000 rpms. The supernatant from the saturated solution is filtered, using a 0.45 μm PTFE syringe filter, into a 1.5 mL glass HPLC.
The standards and sample are analyzed by HPLC using either UV/Vis diode array or variable wavelength detection. Typical quantitation wavelengths are 210 or 254 nm; detection wavelength can be individually customized to optimize sensitivity. In addition to UV detection, mass spectrometry detection is recommended in order to confirm the Mass of the peak of interest.
Dilutions of saturated aqueous test solutions are performed if HPLC-UV peak is beyond the linear portion of the standard calibration curve. Typical dilutions include 100 μl/900 μl (×10) or 500 μl/500 μl (2×), as required.
HPLC grade solvents are employed.

[2] = target: T1, indoleamine 2,3-dioxygenase (IDO) (Homo sapiens, UniProt P14902); experiment: HeLa cell-based indoleamine 2,3-dioxygenase (IDO) assay, kynurenine production; settings: HeLa cells, IFNγ 25 ng/mL, 48 hour incubation
T1 construct: endogenous in cells; host or cells: HeLa (ATCC CCL-2), stimulated with IFN-gamma at 25 ng/mL
T1 sequence (P14902 whole entry): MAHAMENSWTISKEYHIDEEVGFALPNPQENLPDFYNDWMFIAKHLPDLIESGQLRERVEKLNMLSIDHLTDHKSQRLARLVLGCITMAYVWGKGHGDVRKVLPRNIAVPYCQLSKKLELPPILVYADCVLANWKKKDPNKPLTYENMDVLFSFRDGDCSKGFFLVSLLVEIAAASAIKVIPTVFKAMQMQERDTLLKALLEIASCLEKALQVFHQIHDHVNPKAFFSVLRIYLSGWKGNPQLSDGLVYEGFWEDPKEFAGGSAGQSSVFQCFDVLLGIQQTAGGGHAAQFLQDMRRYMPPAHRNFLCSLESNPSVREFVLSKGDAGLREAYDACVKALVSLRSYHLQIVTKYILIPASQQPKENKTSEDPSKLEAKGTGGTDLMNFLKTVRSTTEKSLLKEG
Description: Assessment of inhibitor activity in HeLa cell-based indoleamine 2,3-dioxygenase (IDO) assay:
HeLa (ATCC® CCL-2) cells were obtained from the ATCC® and cultured in Dulbecco's Modified Eagle Medium supplemented with 4.5 g/L glucose, […] (#10-013-CV, Corning), 2 mM L-alanyl-L-glutamine dipeptide (#35050-061, Gibco), 100U/mL penicillin, 100 μg/mL streptomycin (#SV30010, HyClone) and 10% fetal bovine serum (#SH30071.03 HyClone). Cells were maintained in a humidified incubator at 37° C. in 5% CO2.
IDO activity was assessed as a function of kynurenine production as follows: HeLa cells were seeded in a 96-well culture plate at a density of 5,000 cells/well and allowed to equilibrate overnight. After 24 hours, the media was aspirated and replaced with media containing IFNγ (#285-IF/CF, R&D Systems) at a final concentration of 25 ng/mL. A serial dilution of each test compound was added to the cells in a total volume of 200 μL of culture medium. […] Kynurenine concentrations were determined by measuring absorbance at 480 nm and calibrating against an L-kynurenine (#K8625, Sigma-Aldrich) standard curve using a SPECTRAMAX® M2e microplate reader (Molecular Devices). The percentage activity at each inhibitor concentration was determined and IC50 values assessed using nonlinear regression.

[3] = target: T2, human IDO1 (Homo sapiens, UniProt P14902); experiment: Human IDO1/HEK293 cell IDO inhibition assay; format: cell-based; settings: human IDO1/HEK293 cells, 20 hours; read-out: IDO1 HEK Human IC50
T2 construct: expressed in transfected cells
T2 sequence (P14902 whole entry): as above
Description: HEK293 cells were transfected with a pCDNA-based mammalian expression vector harboring human IDO1 cDNA (NM 002164.2) by electroporation. They were cultured in medium (DMEM with 10% FBS) containing 1 mg/ml G418 for two weeks. Clones of HEK293 cells that stably expressed human IDO1 protein were selected and expanded for IDO inhibition assay.
The human IDO1/HEK293 cells were seeded at 10,000 cells per 50 μL per well with RPMI/phenol red free media contains 10% FBS in a 384-well black wall clear bottom tissue culture plate (Matrix Technologies LLC) 100 nL of certain concentration of compound was then added to each well using ECHO liquid handling systems. The cells were incubated for 20 hours in 37° C. incubator with 5% CO2.
The compound treatments were stopped by adding trichloroacetic acid (Sigma-Aldrich) to a final concentration at 0.2%. The cell plate was further incubated at 50° C. for 30 minute. The equal volume supernatant (20 μL) and 0.2% (w/v) Ehrlich reagent (4-dimethylaminobenzaldehyde, Sigma-Aldrich) in glacial acetic acid were mixed in a new clear bottom 384-well plate. This plate was then incubated at room temperature for 30 minute. The absorbance at 490 nm was measured on Envision plate reader. […]

[4] = aqueous buffer pH 1.0, simulated gastric fluid, pH 1.0 buffer
[5] = aqueous buffer pH 7.4, aqueous buffer, pH 7.4 buffer
[6] = aqueous buffer pH 4.0, aqueous buffer, pH 4.0 buffer
[7] = aqueous buffer pH 6.5, aqueous buffer, pH 6.5 buffer

Structure (SMILES)	solubility [1, 4] [µg/mL]	solubility [1, 5] [µg/mL]	IC50 [2] [nM]	IC50 [3] [nM]	solubility [1, 6] [µg/mL]	solubility [1, 7] [µg/mL]
CC[C@@H](CC(=O)O)c1ccc(N(CC(C)C)CC(C)C)c(NC(=O)Nc2ccc(C)cc2)c1 [Example 1E, (S)-3-(4-(diisobutylamino)-3-(3-(p-tolyl)ureido)phenyl)pentanoic Acid]	630 (≈ 1390 µM)	1 (≈ 2.2 µM)	4.1	3.1		
CC[C@@H](CC(=O)OCOC(=O)CCCOP(=O)(O)O)c1ccc(N(CC(C)C)CC(C)C)c(NC(=O)Nc2ccc(C)cc2)c1 [Example 4, (S)-((4-(Phosphonooxy)butanoyl)oxy)methyl 3-(4-(diisobutylamino)-3-(3-(p-tolyl)ureido) Phenyl) Pentanoate]	24 (≈ 36.9 µM)	158 (≈ 243 µM)			> 500	> 500
CCOP(=O)(O)OCOC(=O)C[C@H](CC)c1ccc(N(CC(C)C)CC(C)C)c(NC(=O)Nc2ccc(C)cc2)c1 [Example 9, (3S)-((Ethoxy(hydroxy)phosphoryl)oxy)methyl 3-(4-(diisobutylamino)-3-(3-(p-tolyl)ureido)phenyl)pentanoate]	215 (≈ 363 µM)	> 2000			> 1100	> 2000
CC[C@@H](CC(=O)OC(C)OC(=O)N(C)c1ncccc1COP(=O)(O)O)c1ccc(N(CC(C)C)CC(C)C)c(NC(=O)Nc2ccc(C)cc2)c1 (stereo partly drawn) [Example 20, (3S)-1-((Methyl(3-((phosphonooxy)methyl)pyridin-2-yl)carbamoyl)oxy)ethyl 3-(4-(diisobutylamino)-3-(3-(p-tolyl)ureido)phenyl)pentanoate]	35 (≈ 47.2 µM)	> 500			> 500	> 500
CC[C@@H](CC(=O)OCOC(=O)OCC(C)OP(=O)(O)O)c1ccc(N(CC(C)C)CC(C)C)c(NC(=O)Nc2ccc(C)cc2)c1 (stereo partly drawn) [Example 22, (3S)-(((2-(Phosphonooxy)propoxy)carbonyl)oxy)methyl 3-(4-(diisobutylamino)-3-(3-(p-tolyl)ureido)phenyl)pentanoate]	15 (≈ 22.5 µM)	16 (≈ 24 µM)			> 500	22 (≈ 33 µM)
